Data reported in US20160251341A1, “SUBSTITUTED TRIAZOLE COMPOUNDS AS SERINE PROTEASE INHIBITORS” (Verseon Corporation, priority 2015, published 2016).

Legend:
Human thrombin = biological target: T1, Human thrombin (Homo sapiens, UniProt P00734); experiment: Thrombin protease inhibition assay (chromogenic substrate S-2238); type: biochemical; settings: 3 nM human thrombin, 125 μM S-2238, 10 min pre-incubation, RT
T1 construct: purchased Haematologic Technologies Inc
Method: The thrombin activity reported herein (e.g., Table A) was obtained as follows. Human thrombin was obtained from Haematologic Technologies Inc. The chromogenic substrate S-2238 was obtained from DiaPharma. Thrombin was assayed in buffer containing 0.05 M Tris (pH 7.4), 0.015 M NaCl and 0.01% PEG-8000. The final concentration of enzyme used was 3 nM thrombin. The final concentration of substrate used was 125 μM S-2238 for thrombin. All assays were performed in 96-well microtiter plates at room temperature (RT). The enzyme and inhibitor were pre-incubated for 10 minutes then substrate was added and read at 405 nm in a SpectraMax Plus Spectrophotometer (Molecular Devices). Inhibitor IC50 values were determined by adding test compound as ten point, three-fold serial dilutions in buffer solution, as known in the art. The plate was read at 10 minutes after substrate addition. The IC50 was calculated by plotting the percent (%) inhibition against compound concentration and fitting the data to a constrained four parameter sigmoidal curve, as known in the art.

malignant breast tumors = settings: treated mice, cited from earlier work

| Compound | IC50 (Human thrombin) [nM] | also measured |
| --- | --- | --- |
| O=C(c1ccoc1)n1nc(C2CCOCC2)nc1NCc1ccc(Cl)s1 [Entry 51, N-[(5-chlorothiophen-2-yl)methyl]-1-(furan-3-carbonyl)-3-(oxan-4-yl)-1H-1,2,4-triazol-5-amine] | ≤ 100 |  |
| O=C(c1ccoc1)n1nc(C2CCCO2)nc1NCc1ccc(Cl)s1 (centres unmarked) [Entry 52, N-[(5-chlorothiophen-2-yl)methyl]-1-(furan-3-carbonyl)-3-(oxolan-2-yl)-1H-1,2,4-triazol-5-amine] | ≤ 100 |  |
| O=C(c1ccoc1)n1nc(C2CCOC2)nc1NCc1ccc(Cl)s1 (centres unmarked) [Entry 53, N-[(5-chlorothiophen-2-yl)methyl]-1-(furan-3-carbonyl)-3-(oxolan-3-yl)-1H-1,2,4-triazol-5-amine] | ≤ 100 |  |
| COc1ccccc1C(=O)n1nc(C2CN(S(C)(=O)=O)C2)nc1NCc1ccc(Cl)s1 [Entry 54, N-[(5-chlorothiophen-2-yl)methyl]-3-(1-methanesulfonylazetidin-3-yl)-1-(2-methoxybenzoyl)-1H-1,2,4-triazol-5-amine] | ≤ 100 |  |
| COc1ccccc1C(=O)n1nc(C2CCN(S(C)(=O)=O)CC2)nc1NCc1ccc(Cl)s1 [Entry 55, N-[(5-chlorothiophen-2-yl)methyl]-3-(1-methanesulfonylpiperidin-4-yl)-1-(2-methoxybenzoyl)-1H-1,2,4-triazol-5-amine] | ≤ 100 |  |
| COC1CCCCC1c1n[nH]c(NCc2ccc(Cl)s2)n1 (centres unmarked) [Entry 56, N-[(5-chlorothiophen-2-yl)methyl]-3-(2-methoxycyclohexyl)-1H-1,2,4-triazol-5-amine] | 1000 to 10000 |  |
| O=C(c1ccsc1)n1nc(C2CCOCC2)nc1NCc1ccc(Cl)s1 [Entry 57, N-[(5-chlorothiophen-2-yl)methyl]-3-(oxan-4-yl)-1-(thiophene-3-carbonyl)-1H-1,2,4-triazol-5-amine] | ≤ 100 |  |
| Clc1ccc(CNc2nc(C3CCOCC3)n[nH]2)s1 [Entry 58, N-[(5-chlorothiophen-2-yl)methyl]-3-(oxan-4-yl)-1H-1,2,4-triazol-5-amine] | ≥ 100000 |  |
| O=C(c1ccsc1)n1nc(C2CCCO2)nc1NCc1ccc(Cl)s1 (centres unmarked) [Entry 59, N-[(5-chlorothiophen-2-yl)methyl]-3-(oxolan-2-yl)-1-(thiophene-3-carbonyl)-1H-1,2,4-triazol-5-amine] | ≤ 100 |  |
| Clc1ccc(CNc2nc(C3CCCO3)n[nH]2)s1 (centres unmarked) [Entry 60, N-[(5-chlorothiophen-2-yl)methyl]-3-(oxolan-2-yl)-1H-1,2,4-triazol-5-amine] | ≥ 100000 |  |
| O=C(c1ccsc1)n1nc(C2CCOC2)nc1NCc1ccc(Cl)s1 (centres unmarked) [Entry 61, N-[(5-chlorothiophen-2-yl)methyl]-3-(oxolan-3-yl)-1-(thiophene-3-carbonyl)-1H-1,2,4-triazol-5-amine] | ≤ 100 |  |
| Clc1ccc(CNc2nc(C3CCOC3)n[nH]2)s1 (centres unmarked) [Entry 62, N-[(5-chlorothiophen-2-yl)methyl]-3-(oxolan-3-yl)-1H-1,2,4-triazol-5-amine] | ≥ 100000 |  |
| COc1ccccc1C(=O)n1nc(C2CN(S(=O)(=O)C3CCCCC3)C2)nc1NCc1ccc(Cl)s1 [Entry 63, N-[(5-chlorothiophen-2-yl)methyl]-3-[1-(cyclohexanesulfonyl)azetidin-3-yl]-1-(2-methoxybenzoyl)-1H-1,2,4-triazol-5-amine] | ≤ 100 |  |
| COc1ccccc1C(=O)n1nc(C2CCN(S(=O)(=O)C3CCCCC3)CC2)nc1NCc1ccc(Cl)s1 [Entry 64, N-[(5-chlorothiophen-2-yl)methyl]-3-[1-(cyclohexanesulfonyl)piperidin-4-yl]-1-(2-methoxybenzoyl)-1H-1,2,4-triazol-5-amine] | ≤ 100 |  |
| COc1ccccc1C(=O)n1nc(C2CCOCC2)nc1NCc1ccccc1 [Entry 65, N-benzyl-1-(2-methoxybenzoyl)-3-(oxan-4-yl)-1H-1,2,4-triazol-5-amine] | 1000 to 10000 |  |
| c1ccc(CNc2nc(C3CCOCC3)n[nH]2)cc1 [Entry 66, N-benzyl-3-(oxan-4-yl)-1H-1,2,4-triazol-5-amine] | ≥ 100000 |  |
| CC(C)(C)OC(=O)N1CCCC1c1n[nH]c(N)n1 (centres unmarked) [Entry 67, tert-butyl 2-(5-amino-1H-1,2,4-triazol-3-yl)pyrrolidine-1-carboxylate] | ≥ 100000 |  |
| COc1ccccc1C(=O)n1nc(C2CCCN2C(=O)OC(C)(C)C)nc1NCc1ccc(Cl)s1 (centres unmarked) [Entry 68, tert-butyl 2-(5-[(5-chlorothiophen-2-yl)methyl]amino-1-(2-methoxybenzoyl)-1H-1,2,4-triazol-3-yl)pyrrolidine-1-carboxylate] | 100 to 1000 |  |
| CC(C)(C)OC(=O)N1CCCC1c1n[nH]c(NCc2ccc(Cl)s2)n1 (centres unmarked) [Entry 69, tert-butyl 2-(5-[(5-chlorothiophen-2-yl)methyl]amino-1H-1,2,4-triazol-3-yl)pyrrolidine-1-carboxylate] | ≥ 100000 |  |
| CC(C)(C)OC(=O)N1CC(c2n[nH]c(N)n2)C1 [Entry 70, tert-butyl 3-(5-amino-1H-1,2,4-triazol-3-yl)azetidine-1-carboxylate] | ≥ 100000 |  |
| COc1ccccc1C(=O)n1nc(C2CN(C(=O)OC(C)(C)C)C2)nc1NCc1ccc(Cl)s1 [Entry 71, tert-butyl 3-(5-[(5-chlorothiophen-2-yl)methyl]amino-1-(2-methoxybenzoyl)-1H-1,2,4-triazol-3-yl)azetidine-1-carboxylate] | ≤ 100 |  |
| CC(C)(C)OC(=O)N1CC(c2n[nH]c(NCc3ccc(Cl)s3)n2)C1 [Entry 72, tert-butyl 3-(5-[(5-chlorothiophen-2-yl)methyl]amino-1H-1,2,4-triazol-3-yl)azetidine-1-carboxylate] | ≥ 100000 |  |
| CC(C)(C)OC(=O)N1CCC(c2n[nH]c(N)n2)CC1 [Entry 73, tert-butyl 4-(5-amino-1H-1,2,4-triazol-3-yl)piperidine-1-carboxylate] | ≥ 100000 |  |
| COc1ccccc1C(=O)n1nc(C2CCN(C(=O)OC(C)(C)C)CC2)nc1NCc1ccc(Cl)s1 [Entry 74, tert-butyl 4-(5-[(5-chlorothiophen-2-yl)methyl]amino-1-(2-methoxybenzoyl)-1H-1,2,4-triazol-3-yl)piperidine-1-carboxylate] | ≤ 100 |  |
| CC(C)(C)OC(=O)N1CCC(c2n[nH]c(NCc3ccc(Cl)s3)n2)CC1 [Entry 75, tert-butyl 4-(5-[(5-chlorothiophen-2-yl)methyl]amino-1H-1,2,4-triazol-3-yl)piperidine-1-carboxylate] | ≥ 100000 |  |
| COc1ccccc1C(=O)n1nc(C2CCN(C(=O)OC(C)(C)C)CC2)nc1NCc1ccccc1 [Entry 76, tert-butyl 4-[5-(benzylamino)-1-(2-methoxybenzoyl)-1H-1,2,4-triazol-3-yl]piperidine-1-carboxylate] | ≤ 100 |  |
| CCCCCCOC(=O)NC(=N)c1ccc(NCc2nc3cc(C(=O)N(CCC(=O)OCC)c4ccccn4)ccc3n2C)cc1 [dabigatran etexilate] |  | reduction in tumor volume (malignant breast tumors; at 4 weeks): 50%; weight loss (malignant breast tumors; at 4 weeks): no weight loss; reduced tumor cells in the blood and liver micrometastases (malignant breast tumors): 50-60% |
